Source: patent US20090099060A1, “Modulation of line-1 reverse transcriptase” (priority 2004, published 2009)
“Also recorded” adds a separate entry of the source.

What was measured:
[1] = test system: U-2 OS cells; experiment: Telomere length (PNA probe) and cell cycle (PI) by flow cytometry in nucleoside-analog-treated U-2 OS cells; format: cell-based, human
Protocol: (§1) Telomere length in AZT treated and untreated cell lines was measured by flow cytometry with a telomere-specific peptide nucleic acid (PNA) probe^22,23. To determine cell cycle distribution, cells were stained with propidium iodide (PI)^22. […] AZT at the chosen concentration had no effect on telomere length or cell cycle distribution in the HeLa cells (not shown).
Telomere length in untreated (FIG. 4a) and GCV treated cells (FIG. 4b) was measured by flow cytometry with a telomere-specific PNA probe as described above.
To determine cell cycle distribution, cells were stained with propidium iodide (PI).
(§2) Cell lines: All cell lines used in this study were obtained from American Type Culture Collection (Rockville, Md.). The cells origins included osteosarcoma (Saos-2 and U-2 OS), liver ([…]) and uterine cervix (HeLa). Cells were cultured following ATCC recommendation. For treatment of the cells with AZT, the media was supplemented with 0.2 μM of 3′-azido-2′,3′-dideoxythymidine (Sigma)^28.
(§3) Telomere length measurement by flow cytometry: Cell were stained with telomere specific FITC conjugated (C3TA2)3 PNA (Applied Biosystems) probe and contrastained with 0.06 μg/ml PI as described^21.

[2] = test system: U-2 OS cells; experiment: Bromodeoxyuridine (BdU) incorporation, rate of DNA synthesis in AZT-treated U-2 OS cells; format: cell-based, human; conditions: AZT for 10, 17 and 40 days
Protocol: Rate of DNA synthesis was determined by incorporation of 5-bromodeoxyuridine (BdU)^24.
as §2
Bromodeoxyuridine incorporation: Cell staining, for BdU incorporation, was performed using cells which were incubated with […] BrdU (Sigma) for 2.5 h, stained with BU-33 anti-BrdU monoclonal antibodies (Sigma) and FITC labeled Alexa 488 goat anti-mouse IgG (H+ L) (Fab′) fragments (Molecular Probes), contrastained with 50 μg/ml PI (Sigma) and analyzed by flow cytometry as described^24.

[3] = test system: telomerase-positive tumors (WM1175 malignant melanoma or HUT292DM lung cancer); experiment: Telomerase-positive tumors (WM1175 or HUT292DM cells) in immunodeficient mice treated with AZT; format: in vivo; conditions: AZT at the dose used for inhibiting the growth of the ALT cancer cells
Protocol: After induction of the tumors, mice in the experimental groups may be treated with AZT. Mice may be injected i.p. twice a day with solution of AZT in PBS with a total daily dose of 10 mg/kg. Mice in the control group may be injected with PBS. Alternatively, AZT at the same daily dose may be given in drinking water. […] As a separate set of controls, telomerase-positive tumors in nude mouse may be induced by injecting the immunodeficient mice with WM1175 (malignant melanoma) or HUT292DM (lung cancer) cells instead of the transformed IIICF/c fibroblast cells.

[4] = test system: Saos-2 cells; experiment: Telomere length (PNA probe) and cell cycle (PI) by flow cytometry in AZT-treated Saos-2 cells; format: cell-based, human; conditions: Saos-2, AZT 0.2 μM, 14 days
Protocol: as §1, §2, §3

[5] = test system: U-2 OS/ras-V12 s.c. tumors; experiment: s.c. tumor growth from U-2 OS/ras-V12 cells in nude mice, AZT in drinking water; format: in vivo; conditions: AZT 2 mg/ml in drinking water from day zero
Description: Exemplary in vivo assays of anti-tumor efficacy of AZT using nude mice subcutaneous (s.c.) tumors grown from the U-2 OS human osteosarcoma cell lines (i.e., xenografts bearing mice) as models are described below.
Human cancerous cells needed for in vivo assays may be prepared, for example, as follows: Telomerase-negative, but ALT positive, U-2 OS human osteosarcoma cell lines are obtained from public sources such as ATCC. Cells are maintained in McCoy 5 media supplemented with 10% fetal calf serum at 37° C. in a humidified atmosphere of 5% CO2. […] Accordingly, activated ras-oncogene expression vector is introduced in near-confluent U-2 OS cells by Lipofectamine 2000% transfection according manufacturer's instructions. One day before transfection U-2 Os cells are seeded at a density 1×10^5 cells in a 6 well-plate. Plasmid pBABE-puro-ras-V12 (available publicly) is linearized by restriction digest with Sca I enzyme. The cells are transfected with the linearized construct and grown in culture. One day after the transfection, cells may be diluted. Then the cells are selected with puromycin ([…]) for 8 days. […]
In one embodiment, impairment of s.c. tumor growth or time to progression rather than decrease in size of an established tumor is assessed. […] Tumors are measured every 2-3 days. […] Tumor volume is calculated with formula 4/3πr^3, where r is the radius of the tumor.

[6] = test system: HeLa cells; experiment: Telomere length and cell cycle by flow cytometry in AZT-treated telomerase-positive HeLa cells; format: cell-based, human; conditions: AZT under the same conditions
Protocol: as §1, §2, §3

[7] = U-2 OS, GCV 0.3 μg/ml, 14 days, listed as ganciclovir

Row | Structure (SMILES) | apoptosis ([1]; U-2 OS, GCV 0.3 μg/ml, 14 days) | cell cycle distribution (PI) ([1]; U-2 OS, GCV 0.3 μg/ml, 14 days) | telomere length (telomere-specific PNA probe) ([1]; U-2 OS, GCV 0.3 μg/ml, 14 days) | cell cycle distribution (PI) [1, 7] | telomere length (telomere-specific PNA probe) [1, 7] | rate of DNA synthesis (BdU incorporation) [2] | inhibition of telomerase-positive tumors [3] | DNA content (PI staining) compared to untreated cells ([1]; AZT treated cells at later stages of treatment) | treatment time after which changes in cell cycle distribution, DNA synthesis and telomere length could be detected ([1]; U-2 OS, AZT) [days] | apoptosis ([1]; U-2 OS, AZT 0.2 μM, 14 days) | cell cycle distribution (PI) ([1]; U-2 OS, AZT 0.2 μM, 14 days) | telomere length (telomere-specific PNA fluorescence) ([1]; U-2 OS, AZT 0.2 μM, 14 days) | telomere length over time of treatment ([1]; U-2 OS, AZT for 10, 17 and 40 days) | apoptosis [4] | cell cycle distribution (PI) [4] | telomere length (telomere-specific PNA fluorescence) [4] | tumor development [5] | cell cycle distribution [6] | telomere length [6]
1 | Nc1nc(O)c2ncn(COC(CO)CO)c2n1 [GCV, ganciclovir] | massive apoptosis | G2 arrest | telomere shortening | changes in cell cycle | decrease in telomere length |  |  |  |  |  |  |  |  |  |  |  |  |  | 
2 | Cc1cn([C@H]2C[C@H](N=[N+]=[N-])[C@@H](CO)O2)c(=O)[nH]c1=O [AZT, 3′-azido-2′,3′-dideoxythymidine] |  |  |  |  |  | decrease in DNA synthesis | cannot be inhibited | higher DNA content | 10 | massive apoptosis | G2 arrest; also recorded: changes in cell cycle | telomere shortening; also recorded: decrease in telomere length | progressive telomere shortening | massive apoptosis | G2 arrest; also recorded: changes in cell cycle | telomere shortening; also recorded: decrease in telomere length | remain tumor free | no effect | no effect
